Laboratory results: paper PMC9822369, “Synthesis, Biological Evaluation, DNA Binding, and Molecular Docking of Hybrid 4,6-Dihydrazone Pyrimidine Derivatives as Antitumor Agents” (Molecules, 2022)

Key:
BGC-823 cells [1] = test: MTT cytotoxicity assay, BGC-823 cells; assay type: cell-based; conditions: Homo sapiens, 48 h, read-out: IC50 against BGC-823
Description: (§1) The MTT method is often used to detect the cytotoxicity of compounds in vitro [64]. The cytotoxicity of 10a–10f was evaluated by MTT assay against BGC-823, BEL-7402, MCF-7, and A549 tumor cells. HL-7702 was selected to evaluate the safety of 10a–10f against human normal cells. 5-FU was also evaluated as a positive control. The well-grown cells were inoculated in 96-well plates at a density of 3000 cells/well and incubated in 37 °C for 24 h. The negative control group, blank control group, and administration group were set up. The cells were incubated with a gradient concentration (1.25, 2.5, 5, 10, and 20 μg/mL) of samples or 5-FU for 48 h. Then, 20 μL MTT solution (5 mg/mL) was added to each well. After the cells were incubated for 4 h, 150 μL DMSO was added to each well before testing. The absorbance was measured at 570 nm with a microplate reader. The inhibition rate and final IC50 values were calculated according to the following formula. The values shown are the average of at least three parallel trials. Inhibition rate (%) =1 − (ODsample − ODblank)/(ODnegative − ODblank) × 100%.

BEL-7402 cells = test: MTT cytotoxicity assay, BEL-7402 cells; assay type: cell-based; conditions: Homo sapiens, 48 h, read-out: IC50 against BEL-7402
Description: as §1

MCF-7 cells = test: MTT cytotoxicity assay, MCF-7 cells; assay type: cell-based; conditions: Homo sapiens, MCF7, 48 h, read-out: IC50 against MCF-7
Description: as §1

A549 cells = test: MTT cytotoxicity assay, A549 cells; assay type: cell-based; conditions: Homo sapiens, 48 h, read-out: IC50 against A549
Description: as §1

HL-7702 cells = test: MTT cytotoxicity assay, normal cells HL-7702; assay type: cell-based; conditions: L02, 48 h, normal human hepatocytes, read-out: IC50 against HL-7702
Description: as §1

CT-DNA [2] = test: UV/Vis absorbance titration with CT-DNA; assay type: binding; conditions: hyperchromic effects at 205 nm and 260 nm, no wavelength shift
Description: The binding patterns of 10a and 10f with CT-DNA were measured by UV/Vis spectroscopy in Tris-HCl buffer (0.05 M Tris-HCl/0.1 M NaCl, pH 7.4). The stock solution concentrations of both 10a and 10f in DMSO were 10^−3 M. CT-DNA was dissolved in Tris-HCl buffer and stored at 4 °C for use. The stock solution concentration of CT-DNA was determined by UV/Vis absorbance at 260 nm with the extinction coefficient 6600 M^−1·cm^−1 [67]. Tris-HCl buffer was used as a blank to make preliminary adjustments. Absorbance titration experiments were performed at room temperature with the concentrations of 10a and 10f at 0.1 µM, varying the concentrations of CT-DNA (0.2, 0.4, 0.6, 0.8, and 1 µM). The solution was allowed to equilibrate for 2–3 h before measurement. UV/Vis absorption spectra were recorded in the range of 200–400 nm. The binding constant was calculated according to the following equation [54]: […]=[DNA]/(εb−εf)+1/Kb(εb−εf), where εa corresponds to the observed extinction coefficient (A/[DNA]), εf corresponds to the extinction coefficient of the free compound, and εb is the extinction coefficient of the compound when fully bound to CT-DNA. [DNA] is the concentration of CT-DNA added to the compound. The Kb values of 10a and 10f were calculated from the slope to intercept ratio, which was obtained by plotting a graph of [DNA]/(εa − εf) versus [DNA].

BGC-823 cells [3] = test: AO/EB double staining; assay type: cell-based, Human; conditions: BGC-823, 0.5 IC50, IC50, 1.5 IC50, 24 h
Description: AO (500 μL, 1 mg/mL) and EB (500 μL, 1 mg/mL) were mixed, and then 4 mL PBS was added to the above solution to form AO/EB dye […]. AO/EB dye (100 μL) was added to each well. After incubating for 3–5 min and washing twice with cold PBS, BGC-823 cells were observed immediately under an inverted fluorescence microscope.

CT-DNA [4] = test: Circular dichroism spectra of CT-DNA; assay type: binding; conditions: CT-DNA 600 μM, compound 100 μM, Tris-HCl pH 7.4
Description: The CD spectra of CT-DNA in the absence and presence of 10a or 10f were measured after equilibrating for 1 h in a 1 mm diameter quartz colorimeter at room temperature. The concentration of CT-DNA was fixed at 600 μM in each sample. Both 10a and 10f were added to the above CT-DNA solution at a concentration of 100 μM, respectively. The scanning speed was 200 nm/min. The spectra were scanned on an average of six times in the range of 200–400 nm. All measurements were performed in 0.05 M Tris-HCl buffer (pH 7.4).

BGC-823 cells [5] = test: ROS detection (DCFH-DA) by flow cytometry; assay type: cell-based, Human; conditions: 24 h
Description: According to the instructions of ROS Detection Kit (Solarbio, Beijing, China), in situ probe loading was adopted. ROS intensity changes were determined by inverted fluorescence microscopy and flow cytometry. The whole experiment was carried out under dark conditions.

[6] = target: epidermal growth factor receptor kinase; design: method as in PMID 30633509; conditions: dual epidermal growth factor receptor kinase and microtubule inhibitor; cited from earlier work
DNA = system: DNA; design: method as in PMID 3427013; conditions: classical intercalator; cited from earlier work

Brc1cccc(/C=N/Nc2cc(N/N=C/c3cccc(Br)n3)nc(-c3ccccc3)n2)n1 [Compound 10d, 4,6-Bis(2-((E)-(6-bromopyridin-2-yl)methylene)hydrazinyl)-2-phenylpyrimidine]
IC50 (BGC-823 cells [1]): 20.8 ± 2.69 µM | IC50 (BEL-7402 cells): 22.5 ± 2.83 µM | IC50 (MCF-7 cells): 27.6 ± 0.45 µM | IC50 (A549 cells): 47.1 ± 0.8 µM | IC50 (HL-7702 cells): > 100 µM

Cc1cccc(/C=N/Nc2cc(N/N=C/c3cccc(C)n3)ncn2)n1 [Compound 10c, 4,6-Bis(2-((E)-(6-methylpyridin-2-yl)methylene)hydrazinyl)pyrimidine]
IC50 (BGC-823 cells [1]): 26.21 ± 0.1 µM | IC50 (BEL-7402 cells): 29.5 ± 0.61 µM | IC50 (MCF-7 cells): 24 ± 0.43 µM | IC50 (A549 cells): 37.3 ± 2.3 µM | IC50 (HL-7702 cells): 60.51 ± 0.21 µM

O=c1[nH]cc(F)c(=O)[nH]1 [Compound 5-FU, 5-fluorouracil, reference compound]
IC50 (BGC-823 cells [1]): 15.18 ± 0.05 µM | IC50 (BEL-7402 cells): 15.81 ± 0.01 µM | IC50 (MCF-7 cells): 11.3 ± 0.78 µM | IC50 (A549 cells): 11.8 ± 0.89 µM | IC50 (HL-7702 cells): 20.83 ± 0.05 µM

Brc1cccc(/C=N/Nc2cc(N/N=C/c3cccc(Br)n3)ncn2)n1 [Compound 10a, 4,6-Bis(2-((E)-(6-bromopyridin-2-yl)methylene)hydrazinyl)pyrimidine]
IC50 (BGC-823 cells [1]): 9 ± 0.6 µM | IC50 (BEL-7402 cells): 6.7 ± 0.4 µM | IC50 (MCF-7 cells): 22.93 ± 0.16 µM | IC50 (A549 cells): 26.96 ± 0.14 µM | IC50 (HL-7702 cells): > 100 µM | interaction mode with DNA (absorption spectra) (CT-DNA [2]): groove binding and partial intercalation | apoptosis by AO/EB double staining (morphology) (BGC-823 cells [3]): induce apoptosis of BGC-823 cells in a dose-dependent manner | change of positive (279 nm) and negative (247 nm) CD bands of CT-DNA (CT-DNA [4]): decreased in intensity

C(=N\Nc1cc(N/N=C/c2ccccn2)nc(-c2ccccc2)n1)/c1ccccn1 [Compound 10e, 4,6-Bis(2-((E)-pyridin-2-ylmethylene)hydrazinyl)-2-phenylpyrimidine]
IC50 (BGC-823 cells [1]): 17.7 ± 0.24 µM | IC50 (BEL-7402 cells): 20.2 ± 1.43 µM | IC50 (MCF-7 cells): 15.7 ± 2 µM | IC50 (A549 cells): 30.3 ± 0.65 µM | IC50 (HL-7702 cells): > 100 µM

Cc1cccc(/C=N/Nc2cc(N/N=C/c3cccc(C)n3)nc(-c3ccccc3)n2)n1 [Compound 10f, 4,6-Bis(2-((E)-(6-methylpyridin-2-yl)methylene)hydrazinyl)-2-phenylpyrimidine]
IC50 (BGC-823 cells [1]): 7.89 ± 0.78 µM | IC50 (BEL-7402 cells): 7.66 ± 0.55 µM | IC50 (MCF-7 cells): 10.6 ± 0.14 µM | IC50 (A549 cells): 37.7 ± 1.37 µM | IC50 (HL-7702 cells): > 100 µM | ROS fluorescence intensity (DCF) (BGC-823 cells [5]; BGC-823, 4 μM): 27.6 | ROS fluorescence intensity (DCF) (BGC-823 cells [5]; BGC-823, 8 μM): 32.2 | interaction mode with DNA (absorption spectra) (CT-DNA [2]): groove binding and partial intercalation | apoptosis by AO/EB double staining (morphology) (BGC-823 cells [3]): induce apoptosis of BGC-823 cells in a dose-dependent manner | change of positive (279 nm) and negative (247 nm) CD bands of CT-DNA (CT-DNA [4]): decreased in intensity

COc1cc(Nc2ncnc3cc(-c4ccc(C)cc4)sc23)cc(OC)c1OC [Compound 2]
IC50 [6]: 0.03 µM

CC[n+]1c(-c2ccccc2)c2cc(N)ccc2c2ccc(N)cc21 [EB, Ethidium bromide]
binding constant with DNA (DNA): ~10^7 M^−1

C(=N\Nc1cc(N/N=C/c2ccccn2)ncn1)/c1ccccn1 [Compound 10b, 4,6-Bis(2-((E)-pyridin-2-ylmethylene)hydrazinyl)pyrimidine]
IC50 (BGC-823 cells [1]): 20.9 ± 0.82 µM | IC50 (BEL-7402 cells): 15 ± 2 µM | IC50 (MCF-7 cells): 39.8 ± 1.18 µM | IC50 (A549 cells): 27.3 ± 0.86 µM | IC50 (HL-7702 cells): 38.4 ± 0.58 µM
